For seven compounds, TGI and GI50 results are on record in PubChem BioAssay (NCI).

SMILES strings stand for the structures. Values joined by “and” are separate entries in the source; they are usually repeats but may differ in a detail not shown here. Equal entries are not always repeated.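 Following 48 hours of exposure in 96-well plates, responses at five concentrations were used to interpolate endpoints linearly. GI50 is the concentration that inhibits growth by half. TGI: total growth inhibition.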 Bounds are passed on as bounds.

Among the test systems are M19-MEL melanoma; RXF-631 renal; LXFL 529 NSCLC; KM20L2 colon; DMS 114 small cell lung; XF 498 CNS; DMS 273 small cell lung; SN12K1 renal; SNB-78 CNS; P388/ADR leukemia; P388 leukemia.
Holding throughout (assay): NCI tumour cell line growth inhibition, 48 h

With `CC(=O)C1=C(O)C2(O)C(=O)c3c(c(C)c4ccc(C)c(O)c4c3O)CC2C(N)C1=O` (stereo not drawn), the TGI is 11 µM with M19-MEL melanoma; 11.2 µM with RXF-631 renal; 10.2 µM with LXFL 529 NSCLC; 14.7 µM in the assay with KM20L2 colon; 7.17 µM in the assay with DMS 114 small cell lung; 5.09 µM in the assay with XF 498 CNS. In the assay with DMS 273 small cell lung, this compound registered a TGI of 5.54 µM.
Take `S=C(NCCCCCCNC(=S)Nc1c2ccccc2nc2ccccc12)Nc1c2ccccc2nc2ccccc12`: the TGI in the assay with M19-MEL melanoma is > 100 µM; in the assay on KM20L2 colon, > 100 µM; in the assay on SN12K1 renal it was > 25.1 µM; in the assay with SNB-78 CNS it was > 100 µM; in the assay on XF 498 CNS, > 100 µM; in the assay with P388/ADR leukemia, > 100 µM. For the same compound, the TGI with P388 leukemia and in the assay with DMS 273 small cell lung was > 100 µM in each case.
For the compound `Cc1c2c(cc3c1[nH]c1ccccc13)C(c1ccc(F)cc1)=NCC2`, the TGI in the assay on M19-MEL melanoma was 5.44 µM; with KM20L2 colon it was 5.52 µM; in the assay with DMS 114 small cell lung, 2.41 µM; with SN12K1 renal, 2.16 µM; with SNB-78 CNS, 9.03 µM; in the assay with XF 498 CNS, 5.67 µM. Further, the results for the TGI in the assay with P388/ADR leukemia, with P388 leukemia and in the assay with DMS 273 small cell lung were 5 µM, 1.97 µM and 2.29 µM, respectively.
Consider `CCN(CC)/C(=C\Cl)Nc1ccccn1`, for which the TGI in the assay on M19-MEL melanoma, in the assay on RXF-631 renal, in the assay with LXFL 529 NSCLC, with KM20L2 colon, with DMS 114 small cell lung and in the assay on SNB-78 CNS was > 100 µM each time. The TGI with XF 498 CNS and with DMS 273 small cell lung was > 100 µM each time.
In the case of `C=CCOCCCC(=O)C(=[N+]=[N-])C(=O)OC`, the TGI in the assay with M19-MEL melanoma, with RXF-631 renal, in the assay with LXFL 529 NSCLC, in the assay with KM20L2 colon, with SNB-78 CNS and with XF 498 CNS was > 100 µM throughout.
With `CN(C)CCNc1c([N+](=O)[O-])cc2c3c(cccc13)C(=O)N(CCN(C)C)C2=O`, the TGI worked out at 3.28 µM with M19-MEL melanoma; 5.87 µM in the assay with KM20L2 colon; 3.1 µM in the assay with DMS 114 small cell lung; 7.21 µM in the assay on SNB-78 CNS; 3.92 µM in the assay with XF 498 CNS; 4.9 µM in the assay on P388/ADR leukemia. Further, the TGI was found to be 2.62 µM in the assay with P388 leukemia and 2.95 µM in the assay on DMS 273 small cell lung.
Turning to `Cc1c(N)nc([C@H](CC(N)=O)NC[C@H](N)C(N)=O)nc1C(=O)N[C@H](C(=O)N[C@H](C)[C@@H](O)[C@H](C)C(=O)N[C@H](C(=O)NCCc1nc(-c2nc(C(=O)NCCC[S+](C)C)cs2)cs1)[C@@H](C)O)C(OC1OC(CO)C(O)C(O)C1OC1OC(CO)C(O)C(OC(N)=O)C1O)c1cnc[nH]1` (stereo partly drawn), the GI50 was 12.9 µM in the assay on M19-MEL melanoma; 0.372 µM in the assay on RXF-631 renal; > 29 µM with LXFL 529 NSCLC; 1.29 µM with DMS 114 small cell lung; > 29 µM in the assay with SNB-78 CNS; 0.0709 µM in the assay on DMS 273 small cell lung. Besides, the TGI in the assay on M19-MEL melanoma was 25 µM and 29 µM; with RXF-631 renal, 17.7 µM and 10.4 µM; in the assay with LXFL 529 NSCLC, 23.6 µM and > 29 µM; with KM20L2 colon it was 24.3 µM and 29 µM; in the assay on DMS 114 small cell lung it was 5.68 µM and 29 µM; in the assay with SN12K1 renal, 21 µM. Also, the TGI in the assay on SNB-78 CNS was 24.9 µM and > 29 µM; with XF 498 CNS, 13.5 µM; with P388/ADR leukemia, 20 µM; in the assay with P388 leukemia, 18.5 µM; in the assay on DMS 273 small cell lung, 7.82 µM and 29 µM.
